Source: paper PMC7822874, “Chemoprotective antimalarials identified through quantitative high-throughput screening of Plasmodium blood and liver stage parasites” (Scientific Reports, 2021)
Like-named read-outs stand apart in the source and are kept apart here.

Legend:
[1] = tested on: T1, Plasmodium falciparum Dd2-attB (parental line), asexual blood stages; experiment: microbe, parasite or virus in culture; parameters: species or system P. falciparum Dd2-attB in human erythrocytes; SYBR Green-I proliferation assay, Dd2-attB parental line, asexual blood stages; settings: Plasmodium falciparum, DD2, Erythrocyte, 72 h, read-out: Calculated / Average Log AC50 (M), mean of replicates, 72 h (converted)
T1 construct: Dd2-attB, the isogenic parental line

[2] = tested on: T1, Plasmodium falciparum Dd2-attB (parental line), asexual blood stages; experiment: microbe, parasite or virus in culture; parameters: replicate k of 3 (each line is one of three independent assays; the three lines of one compound and parasite line follow each other); settings: n = 1; for AC50: Plasmodium falciparum, DD2, 72 h, read-out: Individual replicates / Log AC50 (converted)
Procedure, shortened: (§1)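 Three independent runs, compound subset only; parental vs ScDHODH line compared by two-sided Student's t-test.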

[3] = tested on: T2, Plasmodium falciparum Dd2-attB-ScDHODH (transgenic line expressing yeast DHODH), asexual blood stages; experiment: organism not typed; parameters: replicate k of 3 (each line is one of three independent assays; the three lines of one compound and parasite line follow each other); settings: 72 h; n = 1; read-out: Individual replicates / Log AC50 (converted)
T2 construct: Dd2-attB-ScDHODH, the transgenic line that expresses yeast DHODH
Procedure, shortened: as §1

SMILES	AC50 [1] [M]	further results
C=CC(=O)N1CCCN(c2cc(NCCC(=O)O)nc(-c3ccccn3)n2)CC1 [NCGC00420854-01]	2.16e-05	–
O=C(O)c1ccc(O)c2ncc(NC3CCNCC3)cc12 [NCGC00241037-01]	1.72e-05	AC50 [2]: 14.2 µM
CCOC(=O)c1ccnc(CNCC(=O)N(CC)CCN(C)C)c1 [NCGC00371443-05]	1.47e-07	–
O=C(O)c1ccnc2c(O)cccc12 [NCGC00183785-01]	2e-05	–
O=C(O)c1ccnc2cc(C(OCCN3CCC(F)(F)CC3)c3ccccc3Cl)[nH]c12 (stereo not shown) [NCGC00414992-02]	1.53e-05	–
CN(C)CCCN1CCCN(C(=O)c2cccc(-c3cc(O)c4ncccc4c3)c2)C1 [NCGC00247763-01]	1.93e-05	–
CC(C)=C(C#N)C(=O)N1CCCN(c2cc(NCCC(=O)O)nc(-c3ccccn3)n2)CC1 [NCGC00420877-01]	1.59e-08	–
CCOc1ccc(-c2[nH]c3c(C#N)cnn3c2NC2CCCCC2)cc1 [NCGC00119971-02]	1.85e-05	AC50 [2]: 15.9 µM
CC(OCCN1CCCCC1)c1cnn(-c2cc(C(=O)O)ccn2)c1-c1cccc(-c2ccccc2)c1 (stereo not shown) [NCGC00481287-01]	1.36e-05	AC50 [2]: 15.9 µM
COC(=O)c1ccc(N(CCN2CCC(F)(F)CC2)c2ccc(F)cc2)cn1 [NCGC00390009-01]	1.53e-05	–
O=C(NC1CCN(c2cc(-c3ccc(Cl)cc3)n[nH]2)C1)c1ccccc1 (stereo not shown) [NCGC00437928-03]	1.85e-05	AC50 [3]: 12.6 µM
O=C(O)c1ccnc(-n2ncc(C(OCCN3CCCCC3)c3ccccc3Cl)c2-c2ccccc2Cl)c1 (stereo not shown) [NCGC00487469-01]	1.85e-05	–
O=C(O)c1ccc(O)c2ncc(-c3n[nH]nc3-c3ccccc3)cc12 [NCGC00241764-02]	4.66e-06	–
CN1CCCCC1CCOC(c1cc2nccc(C(=O)O)c2[nH]1)c1ccccc1Cl (stereo not shown) [NCGC00479006-01]	1.93e-05	–
O=C(O)c1ccnc(-n2ncc(C(OCCN3CCCCC3)c3ccccc3)c2-c2ccccc2)c1 (stereo not shown) [NCGC00488202-01]	2.12e-05	–
CN1CCCC1CCOC(c1cc2nccc(C(=O)O)c2[nH]1)c1ccccc1Cl (stereo not shown) [NCGC00421826-01]	6.58e-06	–
CN(C)CCCNC(=O)c1ccc(-c2cnc3c(O)ccc(C(=O)O)c3c2)cc1 [NCGC00189503-01]	1.93e-05	–
COc1ccc(CNC(=O)c2nc([S+](=O)([O-])Cc3ccccc3)ncc2Cl)cc1 [NCGC00117170-03]	1.31e-05	AC50 [2]: 8.94 µM
CC1Cc2cc([S+](=O)([O-])NCc3ccc(N(C)C)cc3)ccc2N1C(=O)C1CCC1 (stereo not shown) [NCGC00124605-03]	1.47e-05	AC50 [3]: 15.9 µM
O=C(O)c1ccc(O)c2ncc(N3CCOCC3)cc12 [NCGC00241036-03]	1.65e-05	Individual replicates / Log AC50 (M) ([2]; 72 h): -4.8486 Log AC50 (M)
Cc1cccc(CN2CCN(c3cnc4c(O)ccc(C(=O)O)c4c3)CC2)c1 [NCGC00249381-01]	1.78e-05	AC50 [2]: 15.9 µM
COCCn1c(C)cc(O)c(C(c2ccc(OC)cc2)N2CCN(c3ccccc3)CC2)c1=O (stereo not shown) [NCGC00133311-02]	9.29e-06	–
O=C(O)c1ccnc2cc(C(OCCN3CCCCC3)c3ccccc3Cl)[nH]c12 (stereo not shown) [NCGC00479257-01]	1.89e-05	–
CN(C)CCCNC(=O)c1cccc(-c2cc(O)c3nccc(C(=O)O)c3c2)c1 [NCGC00247762-01]	2.25e-05	–
O=C(O)CCNc1cc(N2CCc3ccccc3CC2)nc(-c2cccnc2)n1 [NCGC00351549-01]	2.08e-05	AC50 [3]: 15.9 µM
O=C(O)c1ccnc2cc(C(OCCCN3CCCC3)c3ccccc3Cl)[nH]c12 (stereo not shown) [NCGC00421827-01]	4.48e-06	–
Cc1nn2c(c1-c1ccnn1C(C)C)N(CC1CC1)CCC2 [NCGC00499721-01]	1.59e-05	–
O=C(O)c1ccnc2c(O)cc(N3CCOCC3)cc12 [NCGC00247744-02]	1.5e-07	–
